Assay results as given in PMC8280061, “A novel ligand of the translationally controlled tumor protein (TCTP) identified by virtual drug screening for cancer differentiation therapy” (Investigational New Drugs, 2021).

Assays:
[1] = molecular target: T1, translationally controlled tumor protein (TCTP) (Homo sapiens, UniProt P13693); test: microscale thermophoresis with NHS-labeled purified human TCTP (reference inhibitor, positive control); assay type: binding
T1 construct: gene TPT1
T1 sequence (P13693 1-172): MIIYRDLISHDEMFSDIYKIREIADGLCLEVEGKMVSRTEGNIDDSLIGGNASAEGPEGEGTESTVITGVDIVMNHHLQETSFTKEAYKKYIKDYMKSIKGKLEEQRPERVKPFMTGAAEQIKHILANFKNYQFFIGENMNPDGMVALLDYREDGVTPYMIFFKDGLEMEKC

[2] = molecular target: T1, translationally controlled tumor protein (TCTP); test: microscale thermophoresis with NHS-labeled purified human TCTP; supported by co-immunoprecipitation of p53 from treated MOLT-4 cells; assay type: binding

Kd [1] [µM] | Kd [2] [µM] | SMILES
23.2 ± 9.45 |  | C[C@H]1[C@H](OC(=O)CCC(=O)O)O[C@@H]2O[C@@]3(C)CC[C@H]4[C@H](C)CC[C@@H]1[C@@]24OO3 [Artesunate]
 | 0.87 ± 0.38 | COc1cccc2c(C)nc(Nc3nc(-c4ccc(F)cc4)cc(=O)[nH]3)nc12 [ZINC10157406, 6-(4-fluorophenyl)-2-[(8-methoxy-4-methyl-2-quinazolinyl)amino]-4(3H)-pyrimidinone]
